Positions of bridges follow the written chain, without caps; N, C: chain ends. Non-standard residues stand in square brackets, D forms with d. Residues, ends and D or L forms follow the SMILES beside them. *: point of attachment. hPhe(3,5-F2-4-CF3) = N[C@@H](CCc1cc(F)c(C(F)(F)F)c(F)c1)C(=O)O; hPhe(3-Cl-4-CF3) = N[C@@H](CCc1ccc(C(F)(F)F)c(Cl)c1)C(=O)O; hPhe(4-CF3) = N[C@@H](CCc1ccc(C(F)(F)F)cc1)C(=O)O; NMeAla(4-thiazolyl) = CN[C@@H](Cc1cscn1)C(=O)O; NMePhe(3-CN) = CN[C@@H](Cc1cccc(C#N)c1)C(=O)O; NMePhe(4-Cl) = CN[C@@H](Cc1ccc(Cl)cc1)C(=O)O; NMePhe(4-Me) = CN[C@@H](Cc1ccc(C)cc1)C(=O)O; Phe(3-CN) = N#Cc1cccc(C[C@H](N)C(=O)O)c1; NMeGly(cPent) = CN[C@H](C(=O)O)C1CCCC1; NMeCha = CN[C@@H](CC1CCCCC1)C(=O)O; NMeChg = CN[C@H](C(=O)O)C1CCCCC1; NMeF = CN[C@@H](Cc1ccccc1)C(=O)O; NMeI = CC[C@H](C)[C@H](NC)C(=O)O; NMeD = CN[C@@H](CC(=O)O)C(=O)O; NMeL = CN[C@@H](CC(C)C)C(=O)O; NMeV = CN[C@H](C(=O)O)C(C)C; d(β3hA) = C[C@@H](N)CC(=O)O; NMeA = CN[C@@H](C)C(=O)O; Piperidide = C1CCN(*)CC1; Pyrrolidide = C1CCN(*)C1; dNMeA = CN[C@H](C)C(=O)O; Ac5c = NC1(C(=O)O)CCCC1; Aze = O=C(O)[C@@H]1CCN1; Ac4c = NC1(C(=O)O)CCC1; Sar = CNCC(=O)O
Each molecule was assayed against T1, Kras and SOS1 (biotin-tagged human Kras loaded with GDP, His-tagged human SOS1) (Homo sapiens, UniProt P01116, G12D) (assay: Protein-protein interaction inhibition between Kras and SOS1 (KrasGl2D-SOS PPI) using AlphaScreen). Details: AlphaScreen; biotin-tagged human Kras loaded with GDP, His-tagged human SOS1; read-out: KRAS G12D-SOS PPI IC50.
T1 construct: made in house; host or cells: E. coli (stated for Kras only)
T1 sequence (P01116 1-188 isoform P01116-2 G12D): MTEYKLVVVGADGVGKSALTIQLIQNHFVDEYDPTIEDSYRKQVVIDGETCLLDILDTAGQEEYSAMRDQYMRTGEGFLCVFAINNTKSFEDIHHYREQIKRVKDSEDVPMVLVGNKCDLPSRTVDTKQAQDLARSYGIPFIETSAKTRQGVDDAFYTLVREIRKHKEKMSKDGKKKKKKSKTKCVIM
Format: binding
How it was run: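 Read-out is acceptor-bead light at 520-620 nm, arising when 680 nm-irradiated nickel donor beads pass singlet oxygen to streptavidin acceptors. The bead pair links His-tagged SOS1 with biotin-tagged, GDP-bound Kras from E. coli.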

Row | Structure (SMILES) | IC50 [nM]
1 | CC[C@H](C)[C@@H]1NC(=O)[C@H](CC(C)C)N(C)C(=O)C[C@@H](C)NC(=O)[C@H](C2CCCC2)N(C)C(=O)C2(CCCC2)NC(=O)[C@@H]2CCCN2C(=O)[C@H](CCc2ccc(C(F)(F)F)c(Cl)c2)NC(=O)[C@@H](C)N(C)C(=O)[C@H](Cc2ccc(C)cc2)N(C)C(=O)CN(C)C(=O)CN(C)C1=O [Compound 1521] (cyclo([Ac5c][NMeGly(cPent)][d(β3hA)][NMeL]I[Sar][Sar][NMePhe(4-Me)][dNMeA][hPhe(3-Cl-4-CF3)]P)) | 110
2 | CC[C@H](C)[C@@H]1NC(=O)[C@H](CC(C)C)N(C)C(=O)C[C@@H](C)NC(=O)[C@H](C(C)C)N(C)C(=O)C2(CCCC2)NC(=O)[C@@H]2CCCN2C(=O)[C@H](CCc2ccc(C(F)(F)F)c(Cl)c2)NC(=O)CN(C)C(=O)[C@H](Cc2cccc(C#N)c2)N(C)C(=O)CN(C)C(=O)CN(C)C1=O [Compound 975] (cyclo([Ac5c][NMeV][d(β3hA)][NMeL]I[Sar][Sar][NMePhe(3-CN)][Sar][hPhe(3-Cl-4-CF3)]P)) | 22
3 | CC[C@H](C)[C@@H]1NC(=O)[C@H](CC(C)C)N(C)C(=O)C[C@@H](C(=O)N2CCCCC2)NC(=O)[C@H](C2CCCCC2)N(C)C(=O)C2(CCCC2)NC(=O)[C@@H]2CCCN2C(=O)[C@H](CCc2ccc(C(F)(F)F)c(Cl)c2)NC(=O)CN(C)C(=O)[C@H](CC2CCCCC2)N(C)C(=O)CN(C)C(=O)CN(C)C1=O [Compound 1274] ([NMeL]I[Sar][Sar][NMeCha][Sar][hPhe(3-Cl-4-CF3)]P[Ac5c][NMeChg]D-Piperidide; lactam N-11) | 3.8
4 | CC[C@H](C)[C@@H]1NC(=O)[C@H](CC(C)C)N(C)C(=O)C[C@@H](C(=O)N(C)C)N(C)C(=O)[C@H]([C@@H](C)CC)N(C)C(=O)C2(CCCC2)NC(=O)[C@@H](C)NC(=O)[C@H](CCc2ccc(C(F)(F)F)c(Cl)c2)NC(=O)CN(C)C(=O)[C@H](Cc2ccc(C)cc2)N(C)C(=O)[C@@H]2CCN2C(=O)[C@H](C)N(C)C1=O [Compound 67] ([NMeL]I[NMeA][Aze][NMePhe(4-Me)][Sar][hPhe(3-Cl-4-CF3)][dA][Ac5c][NMeI][NMeD]-NMe2; lactam N-11) | 8.3
5 | CC[C@H](C)[C@@H]1NC(=O)[C@H](C)N(C)C(=O)C[C@@H](C(=O)N2CCCC2)NC(=O)[C@H](CC(C)C)N(C)C(=O)[C@H](Cc2ccccc2)N(C)C(=O)[C@@H]2CCCN2C(=O)[C@H](CCc2ccc(C(F)(F)F)cc2)NC(=O)CN(C)C(=O)[C@H](Cc2ccc(Cl)cc2)N(C)C(=O)CN(C)C(=O)CN(C)C1=O [Compound 1048] ([NMeA]I[Sar][Sar][NMePhe(4-Cl)][Sar][hPhe(4-CF3)]P[NMeF][NMeL]D-Pyrrolidide; lactam N-11) | 18
6 | CC[C@H](C)[C@@H]1NC(=O)[C@H](CC(C)C)N(C)C(=O)C[C@@H](C(=O)N(C)C)N(C)C(=O)[C@H]([C@@H](C)CC)N(C)C(=O)[C@H](C(C)C)NC(=O)[C@H](Cc2cscn2)N(C)C(=O)[C@H](CCc2ccc(C(F)(F)F)c(Cl)c2)NC(=O)CN(C)C(=O)[C@H](Cc2ccc(C)cc2)N(C)C(=O)[C@@H]2CCN2C(=O)[C@H](C)N(C)C1=O [Compound 982] ([NMeL]I[NMeA][Aze][NMePhe(4-Me)][Sar][hPhe(3-Cl-4-CF3)][NMeAla(4-thiazolyl)]V[NMeI][NMeD]-NMe2; lactam N-11) | 48
7 | CC[C@H](C)[C@@H]1NC(=O)[C@H](C)N(C)C(=O)C[C@@H](C(=O)N2CCCCC2)NC(=O)[C@H](CC(C)C)N(C)C(=O)[C@H](Cc2ccccc2)N(C)C(=O)[C@H](CC(C)C)NC(=O)[C@H](Cc2cccc(C#N)c2)NC(=O)CN(C)C(=O)[C@H](Cc2ccc(Cl)cc2)N(C)C(=O)CN(C)C(=O)CN(C)C1=O [Compound 252] ([NMeA]I[Sar][Sar][NMePhe(4-Cl)][Sar][Phe(3-CN)]L[NMeF][NMeL]D-Piperidide; lactam N-11) | 55
8 | CC[C@H](C)[C@@H]1NC(=O)[C@H](CC(C)C)N(C)C(=O)C[C@@H](C(=O)N2CCCC2)N(C)C(=O)[C@H](C2CCCCC2)N(C)C(=O)C2(CCC2)NC(=O)[C@@H]2CCCN2C(=O)[C@H](CCc2cc(F)c(C(F)(F)F)c(F)c2)NC(=O)CN(C)C(=O)[C@H](CC2CCCCC2)N(C)C(=O)CN(C)C(=O)CN(C)C1=O [Compound 1165] ([NMeL]I[Sar][Sar][NMeCha][Sar][hPhe(3,5-F2-4-CF3)]P[Ac4c][NMeChg][NMeD]-Pyrrolidide; lactam N-11) | 0.73

— patent US12371454B2, “Cyclic peptide compound having Kras inhibitory action” (priority 2019, dated 2025)
